Measured values as given in patent US10548940B2, “Pharmaceutical composition for controlling blood lipids and body weight, and use thereof” (BEIJING HEBABIZ MANAGEMENT CO., LTD, priority 2014, dated 2020).

Legend:
hyperlipidemia rats [1] = assay: Effect of drugs on reducing blood lipid and body weight in high fat diet rats (Examples 5); assay type: in vivo, Wistar rats
Procedure: Take the medicine ZL004, ZL005 and ZL006, 0.5% CMC-Na (carboxymethyl cellulose sodium) solution (25 mg/ml or 50 mg/ml); take atorvastatin as positive control drug (0.5% CMC-Na solution, 0.5 mg/ml), for the following experiment.
120 Wistar rats (male weight; 150 g; feeding environment: SPF grade animal room, free feeding, 12 h light/12 h dark) after adaptive breeding for one week, were randomly divided into normal control group (10 rats) and high-fat diet group (110 rats), and each rat was then numbered. The normal control group were fed with normal diet, high fat diet group were fed with high fat diet (78.8% basal diet (purchased from Beijing, Australia to feed Co. Ltd.) +1% cholesterol, +10% egg yolk powder, +10% lard, +0.2% sodium cholate), 30 days later, after determination, the hyperlipemia rats of high fat diet group were randomly divided into 10 groups (high fat model group, atorvastatin group (atorvastatin 5 mg/kg daily administration), ZL004 high dose group (daily administration of ZL004 500 mg/kg), ZL004 low dose group (daily administration of ZL004 […]), ZL005 high dose group (daily administration of ZL005 500 mg/kg), ZL005 low dose group (daily administration of ZL005 […]), ZL006 high dose group (daily administration of ZL006 500 mg/kg), ZL006 low dose group (daily administration of ZL006 […]), 10 rats in each group. The normal control group and high fat model group daily orally administered 0.5% CMC-Na solution, drug admonition group were orally administered with corresponding drugs administered continuously for 30 days to determine the levels of total cholesterol (TC), triacylglycerol (TG), high density lipoprotein cholesterol (HDL-C), low density lipoprotein cholesterol (LDL-C) and weight. No safety problems were found in the experiment.

hyperlipidemia rats [2] = assay: Further study on the effect of drugs on lowering blood fat and body weight in high fat diet rats, lower doses (Examples 6); assay type: in vivo, Wistar rats
Procedure: Take ZL004, ZL051 and ZL006 (0.5% CMC-Na solution, 7.5 mg/ml, 15 mg/ml, or 30 mg/ml), take atorvastatin as positive control drug (0.5% CMC-Na solution, 0.5 mg/ml), for the following experiment.
130 Wistar rats (male weight; 150 g; feeding environment: SPF grade animal room, free feeding, 12 h light/12 h dark) after adaptive breeding for one week, were randomly divided into normal control group (10 rats) and high-fat diet group (120 rats), and each rat was then numbered. The normal control group were fed with normal diet, high fat diet group were fed with high fat diet (78.8% basal diet (purchased from Beijing, Australia to feed Co. Ltd.)+1% cholesterol, +10% egg yolk powder, +10% lard, +0.2% sodium cholate), After 30 days, after determination, the hyperlipemia rats of high fat diet group were randomly divided into 10 groups (high fat model group, atorvastatin group (atorvastatin 5 mg/kg daily administration), ZL004 high dose group (daily administration of ZL004 300 mg/kg), ZL004 middle dose group (daily administration of ZL004 150 mg/kg), ZL004 low dose group (daily administration of ZL004 75 mg/kg), ZL051 high dose group (daily administration of ZL051 300 mg/kg), ZL051 middle dose group (daily administration of ZL051 150 mg/kg), ZL051 low dose group (daily administration of ZL051 75 mg/kg), ZL006 high dose group (daily administration of ZL006 300 mg/kg), ZL006 middle dose group (daily administration of ZL006 150 mg/kg), ZL006 low dose group (daily administration of ZL006 75 mg/kg), 10 rats in each group. The normal control group and high fat model group daily orally administered 0.5% CMC-Na solution, drug admonition group were orally administered with corresponding drugs administered continuously for 30 days to determine the levels of total cholesterol (TC), triacylglycerol (TG), high density lipoprotein cholesterol (HDL-C), low density lipoprotein cholesterol (LDL-C) and weight. No safety problems found in the experiment.

[3] = each dose (250 and 500 mg/kg), atorvastatin 5 mg/kg, oral daily 30 days, versus model group
[4] = high fat diet hyperlipidemia rats, oral daily for 30 days, 5 mg/kg, model group = 100%
[5] = high fat diet hyperlipidemia rats, oral daily for 30 days, 5 mg/kg, x ± s, n = 10
[6] = serum HDL cholesterol, high fat rats, oral daily 30 days, 5 mg/kg, model group = 100%, x ± s, n = 10
[7] = serum LDL cholesterol, high fat rats, oral daily 30 days, 5 mg/kg, model group = 100%, x ± s, n = 10
[8] = serum total cholesterol, high fat rats, oral daily 30 days, 5 mg/kg, model group = 100%, x ± s, n = 10
[9] = serum triacylglycerol, high fat rats, oral daily 30 days, 5 mg/kg, model group = 100%, x ± s, n = 10

In the case of `CC(C)c1c(C(=O)Nc2ccccc2)c(-c2ccccc2)c(-c2ccc(F)cc2)n1CC[C@@H](O)C[C@@H](O)CC(=O)O` [Atorvastatin, atorvastatin], the “effect on the body weight of hyperlipidemia rats (in words)” value (hyperlipidemia rats [1]; each dose (250 and 500 mg/kg), atorvastatin 5 mg/kg, oral daily 30 days, versus high fat model group) is reported as “reduced the body weight, close to or even lower than the normal control group”, the “effect on HDL-C (in words)” value (hyperlipidemia rats [1]; [3]) is reported as “significantly increase” and the “effect on rat serum TC, TG, LDL-C (in words)” value (hyperlipidemia rats [1]; [3]) is reported as “significantly reduce”. For the same molecule, the “body weight % (/high fat model group)” value (hyperlipidemia rats [1]; [4]) was 90.77 ± 9.22%, the “body weight” value (hyperlipidemia rats [1]; [5]) was 520.1 ± 52.8 g and the “HDL-C % (/model group)” value (hyperlipidemia rats [1]; [6]) was 178.57 ± 57.92 %. For the same molecule, the “LDL-C % (/model group)” value (hyperlipidemia rats [1]; [7]) was 33.13 ± 11.62 %, the “TC % (/model group)” value (hyperlipidemia rats [1]; [8]) was 81.77 ± 14.65 % and the “TG % (/model group)” value (hyperlipidemia rats [1]; [9]) was 70.50 ± 23.19 %. For the same molecule, the “effect on the body weight of hyperlipidemia rats (in words)” value (hyperlipidemia rats [2]; each dose (75, 150, 300 mg/kg), atorvastatin 5 mg/kg, oral daily 30 days, versus high fat model group) was “reduced the body weight, close to or even lower than the normal control group”, the “effect on HDL-C (in words)” value (hyperlipidemia rats [2]; each dose (75, 150, 300 mg/kg), atorvastatin 5 mg/kg, oral daily 30 days, versus model group) was “significantly increase” and the “body weight % (/high fat model group)” value (hyperlipidemia rats [2]; [4]) was 90.37 ± 12.13%. The “body weight” value (hyperlipidemia rats [2]; [5]) was 465.7 ± 62.5 g, the “effect on rat serum TC, TG, LDL-C (in words)” value (hyperlipidemia rats [2]; middle/high doses (150, 300 mg/kg), atorvastatin 5 mg/kg, oral daily 30 days, versus model group) was “significantly reduce” and the “HDL-C % (/model group)” value (hyperlipidemia rats [2]; [6]) was 176.99 ± 37.57 %. The “LDL-C % (/model group)” value (hyperlipidemia rats [2]; [7]) was 67.93 ± 29.54 %, the “TC % (/model group)” value (hyperlipidemia rats [2]; [8]) was 77.03 ± 23.18 % and the “TG % (/model group)” value (hyperlipidemia rats [2]; [9]) was 69.99 ± 17.21 %.
